Values of other authors in patent US20120164210A1, “PHOTODYNAMIC THERAPEUTIC AGENT HAVING CELL-SPECIFIC ACTIVE ACCUMULATION PROPERTIES” (The University of Tokyo, priority 2008, published 2012).

Key:
tumor tissue = settings: in vivo
[1] = after administration, light shielding required

Photofrin
incorporation into tumor tissue relative to normal tissue (tumor tissue): about 4 times
sunlight hypersensitivity as a complication [1]: cause sunlight hypersensitivity
